Measured values: ChEMBL document CHEMBL6078668, “Synthesis and biological evaluation of lappaconitine analogues as potential anti-neuroinflammatory agents by side chain modification and scaffold hopping strategy” (Bioorg Med Chem, 2025)

Tests used:
[1] = Cytotoxicity against C57BL/6 mouse BV-2 cells assessed as survival rate at 30 uM incubated for 24 hrs by MTT assay relative to control; assay type: toxicity, cell-based; conditions: read-out: Survival
[2] = system: BV-2; assay: Anti-neuroinflammatory activity against LPS-stimulated C57BL/6 mouse BV-2 cells assessed as inhibition of NO release at 30 uM preincubated with compound for 4 hrs followed by LPS addition and measured after 24 hrs by Griess reagent based assay relative to control; assay type: functional; conditions: C57BL/6, BV-2, time 28 hrs
[3] = system: BV-2; assay: Anti-neuroinflammatory activity against LPS-stimulated C57BL/6 mouse BV-2 cells assessed as inhibition of NO release preincubated with compound for 4 hrs followed by LPS addition and measured after 24 hrs by Griess reagent based assay; assay type: functional, cell-based; conditions: C57BL/6, BV-2
[4] = Cytotoxicity against C57BL/6 mouse BV-2 cells assessed as survival rate at 20 uM incubated for 24 hrs by MTT assay relative to control; assay type: toxicity, cell-based; conditions: read-out: INH
[5] = system: BV-2; assay: Anti-neuroinflammatory activity against LPS-stimulated C57BL/6 mouse BV-2 cells assessed as inhibition of NO release at 20 uM preincubated with compound for 4 hrs followed by LPS addition and measured after 24 hrs by Griess reagent based assay relative to control; assay type: functional; conditions: C57BL/6, BV-2, time 28 hrs
[6] = Cytotoxicity against C57BL/6 mouse BV-2 cells assessed as survival rate at 10 uM incubated for 24 hrs by MTT assay relative to control; assay type: toxicity, cell-based; conditions: read-out: Survival
[7] = system: BV-2; assay: Anti-neuroinflammatory activity against LPS-stimulated C57BL/6 mouse BV-2 cells assessed as inhibition of NO release at 10 uM preincubated with compound for 4 hrs followed by LPS addition and measured after 24 hrs by Griess reagent based assay relative to control; assay type: functional; conditions: C57BL/6, BV-2, time 28 hrs

| Compound | viability at 24 h, 30 µM [1] [%] | inhibition at 30 µM [2] [%] | IC50 [3] [µM] | other results |
| --- | --- | --- | --- | --- |
| CCN1C[C@]2(OC(=O)c3ccccc3NC(=O)c3ccc(N(C)C)cc3)CC[C@H](OC)[C@]34C1[C@@H](C[C@H]23)[C@@]1(O)C[C@H](OC)[C@H]2C[C@@H]4[C@]1(O)[C@H]2OC | 101 | 62.4 | 23.6 |  |
| CCN1C[C@]2(OC(=O)c3ccccc3NC(=O)S(=O)(=O)c3ccccc3F)CC[C@H](OC)[C@]34C1[C@@H](C[C@H]23)[C@@]1(O)C[C@H](OC)[C@H]2C[C@@H]4[C@]1(O)[C@H]2OC | 106 | 68 | 18.9 |  |
| CCN1C[C@]2(COC(=O)c3ccccc3NC(=O)c3ccc(Cl)s3)CC[C@H](OC)[C@]34C1[C@@H](C[C@H]23)[C@@]1(O)C[C@H](OC)[C@H]2C[C@@H]4[C@]1(O)[C@H]2O |  |  |  | viability at 24 h, 20 µM [4]: 104%; inhibition at 20 µM [5]: 45.3% |
| CCN1C[C@]2(COC)CC[C@H](OC)[C@]34C1[C@@H](C[C@H]23)[C@@]1(O)C[C@H](OC)[C@H]2C[C@@H]4[C@]1(O)[C@H]2OC(=O)c1ccccc1NS(=O)(=O)c1cccc(F)c1 |  |  |  | viability at 24 h, 20 µM [4]: 100%; inhibition at 20 µM [5]: 18.5% |
| CCCOc1ccccc1C(=O)Nc1ccccc1C(=O)O[C@@]12CC[C@H](OC)[C@]34C([C@@H](C[C@H]13)[C@@]1(O)C[C@H](OC)[C@H]3C[C@@H]4[C@]1(O)[C@H]3OC)N(CC)C2 | 106 | 78.5 | 11.8 |  |
| CCc1ccc(C(=O)Nc2ccccc2C(=O)O[C@H]2[C@@H]3C[C@H]4[C@@]56C7[C@@H](C[C@@H]5[C@@](COC)(CC[C@@H]6OC)CN7CC)[C@@](O)(C[C@@H]3OC)[C@@]24O)cc1 |  |  |  | viability at 24 h, 10 µM [6]: 1.2% |
| CCN1C[C@]2(OC(=O)c3ccccc3NC(=O)c3ccc(Br)s3)CC[C@H](OC)[C@]34C1[C@@H](C[C@H]23)[C@@]1(O)C[C@H](OC)[C@H]2C[C@@H]4[C@]1(O)[C@H]2OC | 103 | 72.9 | 16.5 |  |
| CCN1C[C@]2(OC(=O)c3ccccc3NC(=O)c3ccc(Cl)s3)CC[C@H](OC)[C@]34C1[C@@H](C[C@H]23)[C@@]1(O)C[C@H](OC)[C@H]2C[C@@H]4[C@]1(O)[C@H]2OC | 108 | 82.1 | 11.3 |  |
| CCN1C[C@]2(OC(=O)c3ccccc3NC(=O)CC(C)(C)C)CC[C@H](OC)[C@]34C1[C@@H](C[C@H]23)[C@@]1(O)C[C@H](OC)[C@H]2C[C@@H]4[C@]1(O)[C@H]2OC | 106 | 74.8 | 16.1 |  |
| CCN1C[C@]2(OC(=O)c3ccccc3NC(=O)S(=O)(=O)c3cc(F)cc(F)c3)CC[C@H](OC)[C@]34C1[C@@H](C[C@H]23)[C@@]1(O)C[C@H](OC)[C@H]2C[C@@H]4[C@]1(O)[C@H]2OC | 102 | 64.1 | 20.4 |  |
| CCN1C[C@]2(COC)CC[C@H](OC)[C@]34C1[C@@H](C[C@H]23)[C@@]1(O)C[C@H](OC)[C@H]2C[C@@H]4[C@]1(O)[C@H]2OC(=O)c1ccccc1NC(=O)c1ccc(Cl)s1 |  |  |  | viability at 24 h, 10 µM [6]: 97.8%; inhibition at 10 µM [7]: 22.2% |
| CCN1C[C@]2(COC(=O)c3ccccc3NC(=O)c3ccc(Cl)s3)CC[C@H](OC)[C@]34C1[C@@H](C[C@H]23)[C@@]1(O)C[C@H](OC)[C@H]2C[C@@H]4[C@]1(O)[C@H]2OC |  |  |  | viability at 24 h, 10 µM [6]: 105%; inhibition at 10 µM [7]: 13.5% |
| CCN1C[C@]2(OC(=O)c3ccccc3NC(=O)S(=O)(=O)c3cccnc3)CC[C@H](OC)[C@]34C1[C@@H](C[C@H]23)[C@@]1(O)C[C@H](OC)[C@H]2C[C@@H]4[C@]1(O)[C@H]2OC | 99.3 | 63.2 | 22.2 |  |
| CCc1ccc(C(=O)Nc2ccccc2C(=O)O[C@@]23CC[C@H](OC)[C@]45C([C@@H](C[C@H]24)[C@@]2(O)C[C@H](OC)[C@H]4C[C@@H]5[C@]2(O)[C@H]4OC)N(CC)C3)cc1 | 107 | 83.9 | 10.4 |  |
| CCN1C[C@]2(OC(=O)c3ccccc3NC(=O)S(=O)(=O)c3ccc(Br)s3)CC[C@H](OC)[C@]34C1[C@@H](C[C@H]23)[C@@]1(O)C[C@H](OC)[C@H]2C[C@@H]4[C@]1(O)[C@H]2OC | 103 | 81.9 | 11.4 |  |
| CCCOc1ccc(C(=O)Nc2ccccc2C(=O)O[C@@]23CC[C@H](OC)[C@]45C([C@@H](C[C@H]24)[C@@]2(O)C[C@H](OC)[C@H]4C[C@@H]5[C@]2(O)[C@H]4OC)N(CC)C3)cc1 | 105 | 74.8 | 15.5 |  |
| CCN1C[C@]2(OC(=O)c3ccccc3NC(=O)S(=O)(=O)c3cc(Br)c(Cl)s3)CC[C@H](OC)[C@]34C1[C@@H](C[C@H]23)[C@@]1(O)C[C@H](OC)[C@H]2C[C@@H]4[C@]1(O)[C@H]2OC | 94.3 | 29.4 |  |  |

| Compound | viability at 24 h, 30 µM [1] [%] | inhibition at 30 µM [2] [%] | IC50 [3] [µM] | other results |
| --- | --- | --- | --- | --- |
| CCN1C[C@]2(OC(=O)c3ccccc3NC(=O)CCc3ccccc3)CC[C@H](OC)[C@]34C1[C@@H](C[C@H]23)[C@@]1(O)C[C@H](OC)[C@H]2C[C@@H]4[C@]1(O)[C@H]2OC | 108 | 16.6 |  |  |
| O=c1c(O)c(-c2ccc(O)c(O)c2)oc2cc(O)cc(O)c12 [QUERCETIN] | 99.5 | 76.7 |  |  |
| CCN1C[C@]2(COC(=O)c3ccccc3NS(=O)(=O)c3cccc(F)c3)CC[C@H](OC)[C@]34C1[C@@H](C[C@H]23)[C@@]1(O)C[C@H](OC)[C@H]2C[C@@H]4[C@]1(O)[C@H]2OC | 102 | 20.1 |  |  |
| CCN1C[C@]2(OC(=O)c3ccccc3NC(=O)c3ccccc3)CC[C@H](OC)[C@]34C1[C@@H](C[C@H]23)[C@@]1(O)C[C@H](OC)[C@H]2C[C@@H]4[C@]1(O)[C@H]2OC | 107 | 36 |  |  |
| CCCCOC(=O)c1ccccc1NS(=O)(=O)c1ccc(Br)s1 | 104 | 34.6 |  |  |
| CCN1C[C@]2(COC(=O)c3ccccc3N)CC[C@H](OC)[C@]34C1[C@@H](C[C@H]23)[C@@]1(O)C[C@H](OC)[C@H]2C[C@@H]4[C@]1(O)[C@H]2OC | 91.9 | 22 |  |  |
| CCN1C[C@]2(OC(=O)c3ccccc3NC(=O)S(=O)(=O)c3ccc4c(c3)OCC4)CC[C@H](OC)[C@]34C1[C@@H](C[C@H]23)[C@@]1(O)C[C@H](OC)[C@H]2C[C@@H]4[C@]1(O)[C@H]2OC | 96.3 | 9.9 |  |  |
| CCN1C[C@]2(COC(=O)c3ccccc3NS(=O)(=O)c3cccc(F)c3)CC[C@H](OC)[C@]34C1[C@@H](C[C@H]23)[C@@]1(O)C[C@H](OC)[C@H]2C[C@@H]4[C@]1(O)[C@H]2O | 106 | 17.9 |  |  |
| CCN1C[C@]2(OC(=O)c3ccccc3NC(=O)c3ccc(OC)c(OC)c3)CC[C@H](OC)[C@]34C1[C@@H](C[C@H]23)[C@@]1(O)C[C@H](OC)[C@H]2C[C@@H]4[C@]1(O)[C@H]2OC | 102 | 14.3 |  |  |
| CCN1C[C@]2(OC(=O)c3ccccc3NC(=O)S(=O)(=O)c3cc(F)c(F)cc3F)CC[C@H](OC)[C@]34C1[C@@H](C[C@H]23)[C@@]1(O)C[C@H](OC)[C@H]2C[C@@H]4[C@]1(O)[C@H]2OC | 108 | 10.5 |  |  |
| CCN1C[C@]2(OC(=O)c3ccccc3NC(=O)S(=O)(=O)c3ccccc3OC)CC[C@H](OC)[C@]34C1[C@@H](C[C@H]23)[C@@]1(O)C[C@H](OC)[C@H]2C[C@@H]4[C@]1(O)[C@H]2OC | 103 | 15.2 |  |  |
| CCN1C[C@]2(OC(=O)c3ccccc3NC(=O)S(=O)(=O)c3c(Cl)sc4ccccc34)CC[C@H](OC)[C@]34C1[C@@H](C[C@H]23)[C@@]1(O)C[C@H](OC)[C@H]2C[C@@H]4[C@]1(O)[C@H]2OC |  |  |  | viability at 24 h, 10 µM [6]: 98.5%; inhibition at 10 µM [7]: 26.4% |
| CCN1C[C@]2(OC(=O)c3ccccc3NC(=O)S(=O)(=O)c3ccc(F)cc3F)CC[C@H](OC)[C@]34C1[C@@H](C[C@H]23)[C@@]1(O)C[C@H](OC)[C@H]2C[C@@H]4[C@]1(O)[C@H]2OC | 103 | 47.5 |  |  |
| CCN1C[C@]2(OC(=O)c3ccccc3NC(=O)c3ccccc3Br)CC[C@H](OC)[C@]34C1[C@@H](C[C@H]23)[C@@]1(O)C[C@H](OC)[C@H]2C[C@@H]4[C@]1(O)[C@H]2OC | 106 | 32.5 |  |  |
| CCN1C[C@]2(OC(=O)c3ccccc3NC(=O)S(=O)(=O)c3ccc(Cl)s3)CC[C@H](OC)[C@]34C1[C@@H](C[C@H]23)[C@@]1(O)C[C@H](OC)[C@H]2C[C@@H]4[C@]1(O)[C@H]2OC | 100 | 69 | 17.9 |  |
| CCN1C[C@]2(OC(=O)c3ccccc3NC(=O)S(=O)(=O)c3c(C)c(C)c4c(c3C)CC(C)(C)O4)CC[C@H](OC)[C@]34C1[C@@H](C[C@H]23)[C@@]1(O)C[C@H](OC)[C@H]2C[C@@H]4[C@]1(O)[C@H]2OC |  |  |  | viability at 24 h, 10 µM [6]: 95.8%; inhibition at 10 µM [7]: 17.5% |
